Laboratory results from PMC3835791, “Non-Invasive Imaging of Tumors by Monitoring Autotaxin Activity Using an Enzyme-Activated Near-Infrared Fluorogenic Substrate” (PLoS ONE, 2013).

How the values were obtained:
Purified human ATX [1] = biological target: T1, Purified human ATX (Homo sapiens, UniProt Q13822); assay: Michaelis constant of fluorogenic ATX substrates; type: biochemical; details: fluorogenic ATX substrate, rate of fluorescence increase at varying substrate concentrations
T1 construct: purchased Echelon Biosciences, Inc. (Salt Lake City, UT)
Protocol: (§1) AR-2 (100 nM) was incubated with the indicated enzyme in buffer containing 50 mM Tris-Cl pH 8.0, 5 mM KCl, 1 mM CaCl2, 1 mM MgCl2, 140 mM NaCl, and 1 mg/mL fatty acid free bovine serum albumin. Reactions were immediately placed in a Spectramax M2 plate reader (Molecular Devices, Sunnyvale, CA) set at 37°C, monitoring fluorescence exciting at 750 nm and emitting at 805 nm over time. Unless otherwise stated, all reactions used 10 nM enzyme, except alkaline phosphatase, which was performed at 0.1 unit/µL.
(§2) The Michaelis constant (Km) was determined for each compound by measuring the rate of fluorescence increase at varying substrate concentrations using Prism to fit to the Michaelis-Menton equation. Inner filter effects were overcome using previously described methods. The inhibition constant (Ki) for each set of reactions was determined from the IC50 following standard methods.

[2] = biological target: T2, ATX in media from COS-7 cells (Homo sapiens, UniProt Q13822); assay: AR-2 activation by media from COS-7 cells transfected with ATX-encoding plasmid; type: cell-based; details: AR-2 1 µM
T2 construct: expressed in transfected cells; host or cells: COS-7
Protocol: COS-7 cells grown in Dulbecco's Modified Eagle Medium (DMEM) supplemented with 10% FBS and penicillin/streptomycin were transfected with human β ATX cDNA inserted into pcDNA DEST40 (Invitrogen, CA) or mock plasmid in DMEM without FBS using TransIT®-2020 transfection reagent (Mirus Bio, WI) according to the manufacturer's protocol.
(§3) Equal volumes of cell media (COS-7) or conditioned media (MDA-MB-231 or MDA-MB 435) were mixed with buffer to achieve a final concentration of AR-2 (1 µM). All other conditions were as described for purified enzymes.

[3] = Pharmacokinetics of AR-2 in plasma after intravenous dosing; type: in vivo, mice
Protocol: To investigate preliminary PK of AR-2, female BALB/c mice aged 8–10 wks old (Charles River Laboratories, MA) were used. The animals were allowed to acclimatize to housing at least one week prior to use. At day 0, AR-2 was administered as a single bolus injection through lateral tail vein at a dosage of 1.0 mg/kg b.w. The animals were then lightly anesthetized with isoflurane for blood collection at 0, 0.08, 0.25, 0.5, 1, 2, 4, 6, 24, and 48 h after AR-2 administration. Blood samples were collected in EDTA coated tubes by submandibular bleeding or caudal vena cava (at time of sacrifice) with the maximum number of two blood collections from each animal. The collected blood samples were centrifuged, and the plasma was stored at −20°C until analysis.
To determine the concentration of AR-2 in plasma, samples were prepared according to the following procedures. Plasma samples were mixed with nine volumes of tert-butanol∶water (7∶1) then centrifuged at 14,000× g to pellet precipitated proteins. The resulting supernatant was frozen and lyophilized. Samples were then reconstituted in cold PBS and subjected to HPLC analysis using a C18 column (Waters, Milford, MA) with a gradient of 5–60% acetonitrile in 50 mM triethylammonium acetate (pH 6.0). Peaks with absorbance at 778 nm were integrated and compared to mouse plasma samples containing known concentrations of AR-2. The resulting AR-2 concentration versus time data were plotted and fitted with a sum of two exponentials to calculate plasma half-life (t1/2) and various pharmacokinetic parameters using the PK package in R Statistics (version 2.15.1).

[4] = tested on: MDA-MB-231 orthotopic tumor (ATX activity); assay: In vivo NIRF imaging and ex vivo tissue analysis of mice with orthotopic tumors
From the text: Animal studies were approved by the Institutional Animal Care and Use Committee (IACUC) of the University of Utah (protocol numbers 10-10016 and 12-05013). Tumors in mice were established as previously described, [41]. Briefly, approximately ten-week old female nude (Nu/Nu) mice (Charles River Laboratories International, Wilmington, MA) were lightly anesthetized with isoflurane and subcutaneously inoculated with MDA-MB-231 cells in the left thoracic mammary glands. Prior to inoculation, cells were suspended in Extracel to make 5×10^7 cells/mL and each mouse received 0.1 mL of Extracel tumor suspension. To reduce auto-fluorescence arising from the feed, mice were switched to specially formulated diet (2920X, Harlan Laboratories, WI) at least two days prior to imaging.
Six weeks after tumor graft, mice were imaged using AR-2. To visualize tumors, AR-2 was diluted in PBS, filtered through a 0.2 µm porous membrane, and intravenously injected via the lateral vein at 0.5 mg/kg b.w. bolus. The animals were then imaged 48 h after injection with a Pearl Impulse Imager (LI-COR Biosciences, NE) using the 800 nm channel. The fluorescence signals from acquired images were analyzed using Pearl Impulse Software v 2.0 (LI-COR Biosciences) according the manufacturer's protocols. […] ATX-Red dosing, delivery and imaging were unchanged.
Animals were sacrificed, organs were dissected and weighed, then ex vivo fluorescence was imaged and quantified as previously described. Tumors were immediately frozen until further use. Thawed tumors were homogenized in ice cold buffer containing 10 mM Tris pH 7.4, 200 mM NaCl, 10% glycerin, 5 mM EDTA and 1× Halt protease inhibitor cocktail (Thermo Scientific, Rockford, Il.) at a ratio of 40 mg tumor to 1 mL buffer. Samples were centrifuged at 14,000× g at 4°C. ATX levels were determined by diluting supernatants ten times in RD5-10 and assayed using a Human ENPP-2/Autotaxin ELISA (R&D Systems, Minneapolis, MN) and an Autotaxin Sandwich ELISA (Echelon Biosciences, Inc., Salt Lake City, UT) using the manufacturers' protocol. Total protein levels were determined by the method of Bradford. Statistical significance was compared using a two-tailed t-test using Prism.

[5] = tested on: human NPP1, human and mouse NPP7, shrimp alkaline phosphatase, human LPLA2 and human INPP4A; assay: AR-2 reactions with purified enzymes homologous to ATX (selectivity panel); type: biochemical; details: AR-2 100 nM, 10 nM enzyme (alkaline phosphatase 0.1 unit/µL), versus buffer control
Protocol: as §1

mouse ATX = biological target: T3, mouse ATX (Mus musculus, UniProt Q9R1E6); assay: AR-2 reactions with purified enzymes: mouse ATX; type: biochemical; details: AR-2 100 nM, 10 nM enzyme
T3 construct: purchased R&D Systems (Minneapolis, MN)
Protocol: as §1

human ATX = biological target: T4, human ATX (Homo sapiens, UniProt Q13822); assay: AR-2 reactions with purified enzymes: human ATX; type: biochemical; details: AR-2 100 nM, 10 nM enzyme
T4 construct: purchased Echelon Biosciences, Inc. (Salt Lake City, UT)
Protocol: as §1

[6] = biological target: T5, ATX in conditioned media from MDA-MB-435 and MDA-MB-231 cells (Homo sapiens, UniProt Q13822); assay: AR-2 activation by conditioned media from cancer cells overexpressing ATX, with and without PF-8380; type: cell-based; details: PF-8380 1 µM, conditioned media from MDA-MB-435 or MDA-MB-231 cells, AR-2 1 µM
T5 construct: host or cells: MDA-MB-231 and MDA-MB-435 (conditioned media concentrated about 40-fold)
Protocol: MDA-MB-231 and MDA-MB-435 cells were grown to 80% confluence in Roswell Park Memorial Institute (RPMI) medium supplemented with 10% FBS. Cells were rinsed twice with PBS and grown for approximately 60 h in RPMI supplemented with 1% FBS. Media were centrifuged at 1000× g for 1 min to collect cells. Conditioned media was prepared by concentrating the supernatant ∼40-fold using Amicon Ultra YM30 (Millipore, Billerica, MA).
as §3

Purified human ATX [7] = biological target: T1, Purified human ATX; assay: Evaluation of ATX inhibition with fluorogenic substrates (AR-2 or FS-3); type: biochemical; details: human ATX 2 nM, 37°C, Ki determined from the IC50
Protocol: DMSO was spiked into each reaction mixture to equalize vehicle concentrations. Purified human ATX (2 nM final concentration) was mixed with varying concentrations of inhibitor at 37°C for 10 min, then AR-2 or FS-3 was added to a final concentration of 1 µM. The rates of fluorescence increase were measured for up to 2 h. The initial velocity of fluorescence increase was determined and normalized to control reactions. The IC50 of each compound was calculated by fitting a standard curve using a sigmoidal dose-response (variable slope) nonlinear regression curve using GraphPad Prism (version 5.03).
as §2

[8] = MDA-MB-231 xenografts, 48 h after AR-2 dosing, ex vivo

CC1(C)C(/C=C/C2=C(Oc3ccc(S(=O)(=O)O)cc3)C(=C/C=C3/N(CCCCS(=O)(=O)O)c4ccc(S(=O)(=O)[O-])cc4C3(C)C)/CCC2)=[N+](CCCCCC(=O)NCCCCCC(=O)OC[C@@H](O)COP(=O)(O)OCCNC(=O)CCOCCOCCOCCOCCNC(=O)CCCCCN2/C(=C/C=C3\CCCC(/C=C/C4=[N+](CCCS(=O)(=O)O)c5ccc(N(CCCS(=O)(=O)O)CCCS(=O)(=O)O)cc5C4(C)C)=C3Cl)C(C)(C)c3c2ccc2cc(S(=O)(=O)[O-])ccc32)c2ccc(S(=O)(=O)O)cc21 [AR-2]
Km (Purified human ATX [1]): 0.66 ± 0.05 µM
activation of AR-2 by media from ATX-transfected versus mock-transfected COS-7 cells [2]: media from ATX-transfected, but not mock-transfected, cells activated AR-2
apparent volume of distribution (Vd) in 20 g mouse ([3]; 20 g mouse): 8.6 mL
fraction of AR-2 eliminated ([3]; 42 h after dosing (5 half-lives)): approximately 97%
half-life of first phase of bi-exponential plasma decrease ([3]; BALB/c mice, 1.0 mg/kg i.v. bolus, bi-exponential fit, first phase): 18 min
apparent volume of distribution (Vd) ([3]; mice, i.v.): 432 mL/kg, b.w.
apparent volume of distribution as share of body weight ([3]; mice, i.v.): ~43 % of body weight
NIRF signal in excised tumors compared to most other organs [4, 8]: strongly elevated
NIRF signal in kidneys and liver [4, 8]: Moderate signals
NIRF signal in stomach [4, 8]: Modest fluorescence
activation of AR-2 fluorescence by related enzymes [5]: none of the related enzymes tested generated a fluorescence response above buffer control
activation of AR-2 fluorescence by mouse ATX (mouse ATX): activated AR-2 with similar efficiencies
activation of AR-2 fluorescence by human ATX (human ATX): activated AR-2 with similar efficiencies

O=C(CCN1CCN(C(=O)OCc2cc(Cl)cc(Cl)c2)CC1)c1ccc2[nH]c(=O)oc2c1 [PF-8380, reference compound]
AR-2 fluorescence signals in excised tumors normalized to protein, inhibitor-treated versus vehicle-treated mice ([4]; PF-8380 30 mg/kg single oral gavage 20 min prior to AR-2 injection, MDA-MB-231 tumors, P<0.001): significantly reduced
rate of AR-2 fluorescence signal generation in conditioned media with inhibitor [6]: dramatically reduced

CCCCCCCCCCCCCC(=O)Nc1ccc(CP(=O)(O)O)cc1 [S32826]
Ki (Purified human ATX [7]; ATX substrate AR-2 (1 µM)): 1.6 ± 1.9 nM
Ki (Purified human ATX [7]; ATX substrate FS-3 (1 µM)): 5.5 ± 3.3 nM
